Measured values taken from ChEMBL document CHEMBL3991601, “The target landscape of clinical kinase drugs” (Science, 2017).
Active and inactive are the calls of the source.

Experiments:
Actin-related protein 2 = Actin-related protein 2 (Homo sapiens, UniProt P61160)
Adenosine kinase = Adenosine kinase (Homo sapiens, UniProt P55263)
[1] = molecular target: RAC-gamma serine/threonine-protein kinase (Homo sapiens, UniProt Q9Y243)
Deoxycytidine kinase = Deoxycytidine kinase (Homo sapiens, UniProt P27707)
Ephrin type-A receptor 4 = Ephrin type-A receptor 4 (Homo sapiens, UniProt P54764)
[2] = molecular target: T1, Ferrochelatase, mitochondrial (Homo sapiens, UniProt P22830)
T1 sequence (P22830 whole entry): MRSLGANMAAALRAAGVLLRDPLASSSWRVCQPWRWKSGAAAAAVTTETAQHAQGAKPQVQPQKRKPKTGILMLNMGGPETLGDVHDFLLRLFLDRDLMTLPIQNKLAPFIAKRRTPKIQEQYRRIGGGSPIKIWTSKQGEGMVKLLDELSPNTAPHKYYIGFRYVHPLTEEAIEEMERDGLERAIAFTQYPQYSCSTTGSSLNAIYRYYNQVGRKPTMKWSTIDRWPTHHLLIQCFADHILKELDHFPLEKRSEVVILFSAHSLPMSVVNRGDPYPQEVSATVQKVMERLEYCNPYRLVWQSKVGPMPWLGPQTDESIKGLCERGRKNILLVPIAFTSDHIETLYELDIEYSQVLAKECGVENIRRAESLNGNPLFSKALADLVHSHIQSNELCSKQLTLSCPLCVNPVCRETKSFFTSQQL

[3] = molecular target: Putative heat shock protein HSP 90-beta 2 (Homo sapiens, UniProt Q58FF8)
[4] = molecular target: T2, Mitogen-activated protein kinase 15 (Homo sapiens, UniProt Q8TD08)
T2 sequence (Q8TD08 whole entry): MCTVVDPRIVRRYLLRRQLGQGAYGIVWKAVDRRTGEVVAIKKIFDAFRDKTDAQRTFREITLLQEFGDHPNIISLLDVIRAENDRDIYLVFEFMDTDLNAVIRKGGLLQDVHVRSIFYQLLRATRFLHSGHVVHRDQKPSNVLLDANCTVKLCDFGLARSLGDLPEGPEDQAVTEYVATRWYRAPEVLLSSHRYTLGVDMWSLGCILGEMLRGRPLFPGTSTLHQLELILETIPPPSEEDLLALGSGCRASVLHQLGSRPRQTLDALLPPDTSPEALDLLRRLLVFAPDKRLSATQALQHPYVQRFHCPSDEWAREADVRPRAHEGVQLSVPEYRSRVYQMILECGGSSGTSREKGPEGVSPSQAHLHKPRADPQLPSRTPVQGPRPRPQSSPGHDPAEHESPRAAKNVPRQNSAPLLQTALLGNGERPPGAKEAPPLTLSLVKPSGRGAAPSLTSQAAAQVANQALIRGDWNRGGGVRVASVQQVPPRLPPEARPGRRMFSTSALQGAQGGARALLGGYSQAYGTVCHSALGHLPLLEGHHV

[5] = molecular target: Serine/threonine-protein kinase PAK 4 (Homo sapiens, UniProt O96013)
[6] = molecular target: T3, Serine/threonine-protein kinase TAO2 (Homo sapiens, UniProt Q9UL54)
T3 sequence (Q9UL54 whole entry): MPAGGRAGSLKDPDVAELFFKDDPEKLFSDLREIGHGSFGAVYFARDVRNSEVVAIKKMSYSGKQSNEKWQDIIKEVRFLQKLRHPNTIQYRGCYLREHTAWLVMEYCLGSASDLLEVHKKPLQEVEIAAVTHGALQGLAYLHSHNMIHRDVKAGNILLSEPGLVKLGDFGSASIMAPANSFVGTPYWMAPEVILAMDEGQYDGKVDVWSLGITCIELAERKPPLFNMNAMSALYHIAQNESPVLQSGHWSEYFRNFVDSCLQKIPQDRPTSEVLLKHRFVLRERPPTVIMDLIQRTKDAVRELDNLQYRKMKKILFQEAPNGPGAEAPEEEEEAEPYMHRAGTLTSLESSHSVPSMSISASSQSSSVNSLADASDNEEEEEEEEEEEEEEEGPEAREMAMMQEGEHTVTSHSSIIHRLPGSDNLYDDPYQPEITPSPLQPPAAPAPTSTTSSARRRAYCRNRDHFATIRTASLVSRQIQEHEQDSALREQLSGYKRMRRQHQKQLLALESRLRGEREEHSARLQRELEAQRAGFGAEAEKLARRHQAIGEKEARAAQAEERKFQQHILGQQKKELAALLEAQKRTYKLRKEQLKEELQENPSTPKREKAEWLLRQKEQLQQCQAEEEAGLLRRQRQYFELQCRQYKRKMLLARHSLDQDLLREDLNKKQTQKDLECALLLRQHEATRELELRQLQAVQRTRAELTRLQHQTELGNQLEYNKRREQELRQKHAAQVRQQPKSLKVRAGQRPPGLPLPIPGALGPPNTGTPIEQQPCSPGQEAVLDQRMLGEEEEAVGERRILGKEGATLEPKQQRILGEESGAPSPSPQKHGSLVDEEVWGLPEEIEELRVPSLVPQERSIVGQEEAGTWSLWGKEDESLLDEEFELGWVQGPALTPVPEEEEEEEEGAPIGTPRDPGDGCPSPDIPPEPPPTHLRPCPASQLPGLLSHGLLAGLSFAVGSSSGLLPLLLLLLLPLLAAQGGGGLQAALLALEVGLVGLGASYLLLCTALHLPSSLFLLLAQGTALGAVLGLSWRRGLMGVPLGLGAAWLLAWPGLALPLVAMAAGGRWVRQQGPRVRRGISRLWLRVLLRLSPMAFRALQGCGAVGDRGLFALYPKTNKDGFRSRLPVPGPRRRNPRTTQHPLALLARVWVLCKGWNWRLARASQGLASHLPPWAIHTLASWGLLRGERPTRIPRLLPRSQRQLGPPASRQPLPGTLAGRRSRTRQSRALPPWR
Further: in the data inactive means no Kd found up to 30 µM.

Chain of Adenosine kinase (P55263 whole entry): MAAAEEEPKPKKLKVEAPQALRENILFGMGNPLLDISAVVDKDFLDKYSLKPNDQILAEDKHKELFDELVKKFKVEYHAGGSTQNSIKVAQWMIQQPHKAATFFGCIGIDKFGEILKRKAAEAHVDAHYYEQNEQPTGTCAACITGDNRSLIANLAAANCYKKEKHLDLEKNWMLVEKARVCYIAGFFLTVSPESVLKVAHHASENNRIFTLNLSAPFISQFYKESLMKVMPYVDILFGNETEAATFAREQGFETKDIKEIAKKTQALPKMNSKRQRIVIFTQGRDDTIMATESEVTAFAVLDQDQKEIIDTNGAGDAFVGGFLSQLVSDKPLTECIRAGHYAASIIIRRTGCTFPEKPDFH
Chain of RAC-gamma serine/threonine-protein kinase (Q9Y243 whole entry): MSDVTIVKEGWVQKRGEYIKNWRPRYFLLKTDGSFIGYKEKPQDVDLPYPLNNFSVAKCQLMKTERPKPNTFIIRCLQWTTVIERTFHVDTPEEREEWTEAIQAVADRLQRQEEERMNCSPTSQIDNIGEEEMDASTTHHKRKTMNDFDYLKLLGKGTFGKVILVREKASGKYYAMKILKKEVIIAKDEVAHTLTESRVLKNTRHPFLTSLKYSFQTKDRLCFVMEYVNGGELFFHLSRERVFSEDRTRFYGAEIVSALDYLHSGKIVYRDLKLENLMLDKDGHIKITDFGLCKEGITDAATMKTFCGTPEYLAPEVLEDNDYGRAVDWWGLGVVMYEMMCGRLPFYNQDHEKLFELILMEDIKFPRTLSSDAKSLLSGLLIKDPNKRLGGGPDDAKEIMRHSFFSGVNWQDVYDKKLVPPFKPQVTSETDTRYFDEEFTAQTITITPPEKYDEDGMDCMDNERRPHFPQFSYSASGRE
Chain of Deoxycytidine kinase (P27707 whole entry): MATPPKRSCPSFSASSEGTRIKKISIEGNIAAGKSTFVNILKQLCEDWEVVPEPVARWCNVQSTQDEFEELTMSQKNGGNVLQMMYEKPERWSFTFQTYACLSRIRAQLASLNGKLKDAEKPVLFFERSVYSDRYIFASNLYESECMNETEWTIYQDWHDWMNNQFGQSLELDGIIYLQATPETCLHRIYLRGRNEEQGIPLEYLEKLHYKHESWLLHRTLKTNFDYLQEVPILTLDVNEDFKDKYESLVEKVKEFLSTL
Chain of Putative heat shock protein HSP 90-beta 2 (Q58FF8 whole entry): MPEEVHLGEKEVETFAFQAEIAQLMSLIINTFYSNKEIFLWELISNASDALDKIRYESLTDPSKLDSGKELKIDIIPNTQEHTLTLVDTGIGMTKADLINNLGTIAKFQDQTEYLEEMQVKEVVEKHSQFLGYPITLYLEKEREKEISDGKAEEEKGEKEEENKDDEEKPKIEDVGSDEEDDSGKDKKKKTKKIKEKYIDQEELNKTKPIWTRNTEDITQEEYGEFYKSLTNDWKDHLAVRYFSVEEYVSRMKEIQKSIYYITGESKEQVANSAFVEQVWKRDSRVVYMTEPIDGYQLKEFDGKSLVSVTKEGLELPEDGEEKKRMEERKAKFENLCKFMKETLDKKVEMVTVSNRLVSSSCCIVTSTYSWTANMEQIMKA
Chain of Ephrin type-A receptor 4 (P54764 whole entry): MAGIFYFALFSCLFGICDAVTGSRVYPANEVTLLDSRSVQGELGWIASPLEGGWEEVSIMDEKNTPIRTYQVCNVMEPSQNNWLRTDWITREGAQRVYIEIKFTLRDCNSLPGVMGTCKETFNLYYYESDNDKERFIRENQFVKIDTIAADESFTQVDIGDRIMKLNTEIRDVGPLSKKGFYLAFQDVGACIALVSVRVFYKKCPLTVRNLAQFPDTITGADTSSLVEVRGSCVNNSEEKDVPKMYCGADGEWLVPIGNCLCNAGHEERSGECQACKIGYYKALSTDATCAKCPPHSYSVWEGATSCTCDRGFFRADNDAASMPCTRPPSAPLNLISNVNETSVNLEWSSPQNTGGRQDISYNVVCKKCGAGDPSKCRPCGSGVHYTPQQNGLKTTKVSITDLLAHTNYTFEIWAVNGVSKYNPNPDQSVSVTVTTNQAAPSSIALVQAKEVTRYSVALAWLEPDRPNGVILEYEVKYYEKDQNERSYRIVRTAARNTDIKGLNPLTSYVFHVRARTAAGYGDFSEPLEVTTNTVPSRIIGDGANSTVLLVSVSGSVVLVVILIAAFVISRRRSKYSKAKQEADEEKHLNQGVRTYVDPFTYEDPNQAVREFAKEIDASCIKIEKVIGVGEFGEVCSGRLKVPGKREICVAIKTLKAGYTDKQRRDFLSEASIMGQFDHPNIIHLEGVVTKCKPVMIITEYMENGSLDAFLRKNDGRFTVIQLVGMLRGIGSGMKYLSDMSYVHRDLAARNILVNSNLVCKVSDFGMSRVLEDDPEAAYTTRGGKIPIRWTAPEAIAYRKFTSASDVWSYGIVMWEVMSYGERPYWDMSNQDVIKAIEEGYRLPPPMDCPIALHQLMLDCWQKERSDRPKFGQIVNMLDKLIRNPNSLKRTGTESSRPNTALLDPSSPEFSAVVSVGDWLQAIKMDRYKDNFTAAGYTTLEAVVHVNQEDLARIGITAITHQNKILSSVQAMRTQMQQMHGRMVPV
Chain of Serine/threonine-protein kinase PAK 4 (O96013 whole entry): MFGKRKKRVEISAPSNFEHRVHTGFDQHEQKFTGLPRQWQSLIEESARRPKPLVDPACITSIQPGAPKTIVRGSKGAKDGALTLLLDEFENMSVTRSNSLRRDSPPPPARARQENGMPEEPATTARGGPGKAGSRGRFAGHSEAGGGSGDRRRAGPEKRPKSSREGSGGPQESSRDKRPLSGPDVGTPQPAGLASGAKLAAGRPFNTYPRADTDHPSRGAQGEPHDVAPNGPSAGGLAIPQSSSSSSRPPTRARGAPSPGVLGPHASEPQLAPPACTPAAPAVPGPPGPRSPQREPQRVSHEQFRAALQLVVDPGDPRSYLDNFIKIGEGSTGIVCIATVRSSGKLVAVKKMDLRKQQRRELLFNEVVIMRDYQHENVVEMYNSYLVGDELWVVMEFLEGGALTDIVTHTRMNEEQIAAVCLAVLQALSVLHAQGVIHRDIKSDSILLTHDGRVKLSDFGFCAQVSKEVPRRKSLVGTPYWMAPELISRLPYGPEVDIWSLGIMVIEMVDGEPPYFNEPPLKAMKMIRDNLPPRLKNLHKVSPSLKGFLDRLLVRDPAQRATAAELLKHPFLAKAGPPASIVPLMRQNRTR

Compound: NC(=O)Nc1cc(-c2cccc(F)c2)sc1C(=O)N[C@H]1CCCNC1 [AZD-7762]
- Kd (Actin-related protein 2): > 30 µM (inactive)
- Kd (Adenosine kinase): > 30 µM (inactive)
- Kd [1]: > 30 µM (inactive)
- Kd (Deoxycytidine kinase): > 30 µM (inactive)
- Kd (Ephrin type-A receptor 4): > 30 µM (inactive)
- Kd [2]: > 30 µM (inactive)
- Kd [3]: > 30 µM (inactive)
- Kd [4]: > 30 µM (inactive)
- Kd [5]: 0.166 µM (active)
- Kd [6]: > 30 µM (inactive)

Compound: Cc1cc(C(=O)NOCCO)c(Nc2ccc(I)cc2F)n(C)c1=O [AZD-8330]
- Kd (Actin-related protein 2): > 30 µM (inactive)
- Kd (Adenosine kinase): > 30 µM (inactive)
- Kd [1]: > 30 µM (inactive)
- Kd (Deoxycytidine kinase): > 30 µM (inactive)
- Kd (Ephrin type-A receptor 4): > 30 µM (inactive)
- Kd [2]: > 30 µM (inactive)
- Kd [3]: > 30 µM (inactive)
- Kd [4]: > 30 µM (inactive)
- Kd [5]: > 30 µM (inactive)
- Kd [6]: > 30 µM (inactive)

Compound: Cn1cnc2c(F)c(Nc3ccc(Br)cc3F)c(C(=O)NOCCO)cc21 [BINIMETINIB]
- Kd (Actin-related protein 2): > 30 µM (inactive)
- Kd (Adenosine kinase): > 30 µM (inactive)
- Kd [1]: > 30 µM (inactive)
- Kd (Deoxycytidine kinase): > 30 µM (inactive)
- Kd (Ephrin type-A receptor 4): > 30 µM (inactive)
- Kd [2]: > 30 µM (inactive)
- Kd [3]: > 30 µM (inactive)
- Kd [4]: > 30 µM (inactive)
- Kd [5]: > 30 µM (inactive)
- Kd [6]: > 30 µM (inactive)

Compound: CCn1c(C(=O)N(C2CC2)C2CC2)cc2c3c(ncn3C)c(Nc3cc(C)n(C)n3)nc21 [BMS-911543]
- Kd (Actin-related protein 2): > 30 µM (inactive)
- Kd (Adenosine kinase): > 30 µM (inactive)
- Kd [1]: > 30 µM (inactive)
- Kd (Deoxycytidine kinase): > 30 µM (inactive)
- Kd (Ephrin type-A receptor 4): > 30 µM (inactive)
- Kd [2]: > 30 µM (inactive)
- Kd [3]: > 30 µM (inactive)
- Kd [4]: > 30 µM (inactive)
- Kd [5]: > 30 µM (inactive)
- Kd [6]: > 30 µM (inactive)

Compound: COc1cc2ncnc(Oc3cccc(NC(=O)Nc4cc(C(C)(C)C(F)(F)F)on4)c3)c2cc1OC [CEP-32496]
- Kd (Actin-related protein 2): > 30 µM (inactive)
- Kd (Adenosine kinase): > 30 µM (inactive)
- Kd [1]: > 30 µM (inactive)
- Kd (Deoxycytidine kinase): > 30 µM (inactive)
- Kd (Ephrin type-A receptor 4): > 30 µM (inactive)
- Kd [2]: > 30 µM (inactive)
- Kd [3]: > 30 µM (inactive)
- Kd [4]: > 30 µM (inactive)
- Kd [5]: > 30 µM (inactive)
- Kd [6]: > 30 µM (inactive)

Compound: Cc1cc(Nc2ncc(Cl)c(Nc3ccccc3S(=O)(=O)C(C)C)n2)c(OC(C)C)cc1C1CCNCC1 [CERITINIB]
- Kd (Actin-related protein 2): > 30 µM (inactive)
- Kd (Adenosine kinase): > 30 µM (inactive)
- Kd [1]: > 30 µM (inactive)
- Kd (Deoxycytidine kinase): > 30 µM (inactive)
- Kd (Ephrin type-A receptor 4): > 30 µM (inactive)
- Kd [2]: > 30 µM (inactive)
- Kd [3]: > 30 µM (inactive)
- Kd [4]: > 30 µM (inactive)
- Kd [5]: > 30 µM (inactive)
- Kd [6]: > 30 µM (inactive)

Compound: COc1c(OCCCN2CCOCC2)ccc2c1N=C(NC(=O)c1cnc(N)nc1)N1CCN=C21 [COPANLISIB]
- Kd (Actin-related protein 2): > 30 µM (inactive)
- Kd (Adenosine kinase): > 30 µM (inactive)
- Kd [1]: > 30 µM (inactive)
- Kd (Deoxycytidine kinase): > 30 µM (inactive)
- Kd (Ephrin type-A receptor 4): > 30 µM (inactive)
- Kd [2]: > 30 µM (inactive)
- Kd [3]: > 30 µM (inactive)
- Kd [4]: > 30 µM (inactive)
- Kd [5]: > 30 µM (inactive)
- Kd [6]: > 30 µM (inactive)
